Measured values as given in patent US9062071B2, “Substituted piperidines as HDM2 inhibitors” (Merck Sharp & Dohme Corp, priority 2011, dated 2015).
pIC50: −log10 of the molar value.

Molecular target: HDM2 protein (Homo sapiens, UniProt Q00987)
Experiment: fluorescence polarization screening assay (FP IC50)
Type: binding
Details: class symbols
Protocol: The compounds were evaluated to determine activity at the HDM2 protein by known methods such as the fluorescence polarization screening assay that measures the inhibitory concentration that achieves 50% of maximal activity (FP IC50) and the dissociation constant for inhibitor binding (FP Ki). [Zhang et al., J. Analytical Biochemistry 331: 138-146 (2004)].

HDM2 protein, sequence (Q00987 whole entry): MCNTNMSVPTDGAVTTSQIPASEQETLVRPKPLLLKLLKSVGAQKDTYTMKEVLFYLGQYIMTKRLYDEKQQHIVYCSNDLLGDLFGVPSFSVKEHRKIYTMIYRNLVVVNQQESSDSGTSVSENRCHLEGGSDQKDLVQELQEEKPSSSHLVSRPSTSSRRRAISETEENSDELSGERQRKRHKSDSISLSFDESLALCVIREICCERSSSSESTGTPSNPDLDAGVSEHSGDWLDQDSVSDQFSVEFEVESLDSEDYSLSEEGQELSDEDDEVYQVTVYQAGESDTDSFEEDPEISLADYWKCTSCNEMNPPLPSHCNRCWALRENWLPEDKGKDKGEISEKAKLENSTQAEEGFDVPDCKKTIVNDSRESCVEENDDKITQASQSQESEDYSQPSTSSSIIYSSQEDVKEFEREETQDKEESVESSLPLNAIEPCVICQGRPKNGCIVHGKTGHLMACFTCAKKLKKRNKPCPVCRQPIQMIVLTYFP

Row | SMILES | pIC50
1 | CCC[C@H]1N(C(=O)c2ncccc2C(F)(F)F)CCC[C@@]1(Oc1csc(C(F)(F)F)c1)C(=O)N1CCc2cc(Cl)ccc2C1CCC(=O)NCc1nn[nH]n1 (stereo partly drawn) [Compound A67, 3-(6-chloro-2-{[(2R,3S)-2-propyl-1-{[3-(trifluoromethyl)pyridin-2-yl]carbonyl}-3-{[5-(trifluoromethyl)thiophen-3-yl]oxy}piperidin-3-yl]carbonyl}-1,2,3,4-tetrahydroisoquinolin-1-yl)-N-(2H-tetrazol-5-ylmethyl)propanamide] | 7.00 to 9.00
2 | CCC[C@H]1N(C(=O)c2ncccc2C(F)(F)F)CCC[C@@]1(Oc1csc(C(F)(F)F)c1)C(=O)N1CCc2cc(Br)ccc2C1CC(=O)O (stereo partly drawn) [Compound A70, (6-bromo-2-{[(2R,3S)-2-propyl-1-{[3-(trifluoromethyl)pyridin-2-yl]carbonyl}-3-{[5-(trifluoromethyl)thiophen-3-yl]oxy}piperidin-3-yl]carbonyl}-1,2,3,4-tetrahydroisoquinolin-1-yl)acetic acid] | 7.00 to 9.00
3 | CCC[C@H]1N(C(=O)c2ncccc2C(F)(F)F)CCC[C@@]1(Oc1csc(C(F)(F)F)c1)C(=O)N1CCc2cc(Cl)ccc2C1CC(C)(C)C#N (stereo partly drawn) [Compound A71, 3-(6-chloro-2-{[(2R,3S)-2-propyl-1-{[3-(trifluoromethyl)pyridin-2-yl]carbonyl}-3-{[5-(trifluoromethyl)thiophen-3-yl]oxy}piperidin-3-yl]carbonyl}-1,2,3,4-tetrahydroisoquinolin-1-yl)-2,2-dimethylpropanenitrile] | 4.70 to 7.00
4 | CCC[C@H]1N(C(=O)c2ncccc2C(F)(F)F)CCC[C@@]1(Oc1csc(C(F)(F)F)c1)C(=O)N1CCc2cc(Br)ccc2C1CC(=O)O (stereo partly drawn) [Compound A72, (6-bromo-2-{[(2R,3S)-2-propyl-1-{[3-(trifluoromethyl)pyridin-2-yl]carbonyl}-3-{[5-(trifluoromethyl)thiophen-3-yl]oxy}piperidin-3-yl]carbonyl}-1,2,3,4-tetrahydroisoquinolin-1-yl)acetic acid] | 7.00 to 9.00
5 | CCC[C@H]1N(C(=O)c2ncccc2C(F)(F)F)CCC[C@@]1(Oc1csc(C(F)(F)F)c1)C(=O)N1CCc2cc(Cl)ccc2C1CCCC(=O)O (stereo partly drawn) [Compound A73, 4-(6-chloro-2-{[(2R,3S)-2-propyl-1-{[3-(trifluoromethyl)pyridin-2-yl]carbonyl}-3-{[5-(trifluoromethyl)thiophen-3-yl]oxy}piperidin-3-yl]carbonyl}-1,2,3,4-tetrahydroisoquinolin-1-yl)butanoic acid] | 7.00 to 9.00
6 | CCC[C@H]1N(C(=O)c2ncccc2C(F)(F)F)CCC[C@@]1(Oc1csc(C(F)(F)F)c1)C(=O)N1CCc2cc(Cl)ccc2C1CCCC(=O)O (stereo partly drawn) [Compound A74, 4-(6-chloro-2-{[(2R,3S)-2-propyl-1-{[3-(trifluoromethyl)pyridin-2-yl]carbonyl}-3-{[5-(trifluoromethyl)thiophen-3-yl]oxy}piperidin-3-yl]carbonyl}-1,2,3,4-tetrahydroisoquinolin-1-yl)butanoic acid] | 7.00 to 9.00
7 | CCC[C@H]1N(C(=O)c2ncccc2C(F)(F)F)CCC[C@@]1(Oc1csc(C(F)(F)F)c1)C(=O)N1CCc2cc(Cl)ccc2C1C(N)=O (stereo partly drawn) [Compound A75, 6-chloro-2-{[(2R,3S)-2-propyl-1-{[3-(trifluoromethyl)pyridin-2-yl]carbonyl}-3-{[5-(trifluoromethyl)thiophen-3-yl]oxy}piperidin-3-yl]carbonyl}-1,2,3,4-tetrahydroisoquinoline-1-carboxamide] | 7.00 to 9.00
8 | CCC[C@H]1N(C(=O)c2ncccc2C(F)(F)F)CCC[C@@]1(Oc1csc(C(F)(F)F)c1)C(=O)N1CCc2cc(Cl)ccc2C1C#N (stereo partly drawn) [Compound A76, 6-chloro-2-{[(2R,3S)-2-propyl-1-{[3-(trifluoromethyl)pyridin-2-yl]carbonyl}-3-{[5-(trifluoromethyl)thiophen-3-yl]oxy}piperidin-3-yl]carbonyl}-1,2,3,4-tetrahydroisoquinoline-1-carbonitrile] | 4.70 to 7.00
9 | CCC[C@H]1N(C(=O)c2ncccc2C(F)(F)F)CCC[C@@]1(Oc1csc(C(F)(F)F)c1)C(=O)N1CCc2cc(Cl)ccc2C1C(N)=O (stereo partly drawn) [Compound A77, 6-chloro-2-{[(2R,3S)-2-propyl-1-{[3-(trifluoromethyl)pyridin-2-yl]carbonyl}-3-{[5-(trifluoromethyl)thiophen-3-yl]oxy}piperidin-3-yl]carbonyl}-1,2,3,4-tetrahydroisoquinoline-1-carboxamide] | 7.00 to 9.00
10 | CCC[C@H]1N(C(=O)c2ncccc2C(F)(F)F)CCC[C@@]1(Oc1csc(C(F)(F)F)c1)C(=O)N1CCc2cc(Cl)ccc2C1C#N (stereo partly drawn) [Compound A78, 6-chloro-2-{[(2R,3S)-2-propyl-1-{[3-(trifluoromethyl)pyridin-2-yl]carbonyl}-3-{[5-(trifluoromethyl)thiophen-3-yl]oxy}piperidin-3-yl]carbonyl}-1,2,3,4-tetrahydroisoquinoline-1-carbonitrile] | 4.70 to 7.00
11 | CCC[C@H]1N(C(=O)c2ncccc2C(F)(F)F)CCC[C@@]1(Oc1csc(C(F)(F)F)c1)C(=O)N1CCc2cc(Cl)ccc2[C@H]1CCC(=O)NC#N [Compound A79, 3-[(1R)-6-chloro-2-{[(2R,3S)-2-propyl-1-{[3-(trifluoromethyl)pyridin-2-yl]carbonyl}-3-{[5-(trifluoromethyl)thiophen-3-yl]oxy}piperidin-3-yl]carbonyl}-1,2,3,4-tetrahydroisoquinolin-1-yl]-N-cyanopropanamide] | 7.00 to 9.00
12 | CCC[C@H]1N(C(=O)c2ncccc2C(F)(F)F)CCC[C@@]1(Oc1csc(C(F)(F)F)c1)C(=O)N1CCc2cc(Cl)ccc2[C@@H]1CCC(=O)NC#N [Compound A80, 3-[(1S)-6-chloro-2-{[(2R,3S)-2-propyl-1-{[3-(trifluoromethyl)pyridin-2-yl]carbonyl}-3-{[5-(trifluoromethyl)thiophen-3-yl]oxy}piperidin-3-yl]carbonyl}-1,2,3,4-tetrahydroisoquinolin-1-yl]-N-cyanopropanamide] | 7.00 to 9.00
13 | CCC[C@H]1N(C(=O)c2ncccc2C(F)(F)F)CCC[C@@]1(Oc1csc(C(F)(F)F)c1)C(=O)N1CCc2cc(Cl)ccc2C1CC(=O)N1CCNC(=O)C1 (stereo partly drawn) [Compound A81, 4-[(6-chloro-2-{[(2R,3S)-2-propyl-1-{[3-(trifluoromethyl)pyridin-2-yl]carbonyl}-3-{[5-(trifluoromethyl)thiophen-3-yl]oxy}piperidin-3-yl]carbonyl}-1,2,3,4-tetrahydroisoquinolin-1-yl)acetyl]piperazin-2-one] | 7.00 to 9.00
14 | CCC[C@H]1N(C(=O)c2ncccc2C(F)(F)F)CCC[C@@]1(Oc1csc(C(F)(F)F)c1)C(=O)N1CCc2cc(Cl)ccc2C1CC(=O)N1CCC(O)CC1 (stereo partly drawn) [Compound A82, 1-[(6-chloro-2-{[(2R,3S)-2-propyl-1-{[3-(trifluoromethyl)pyridin-2-yl]carbonyl}-3-{[5-(trifluoromethyl)thiophen-3-yl]oxy}piperidin-3-yl]carbonyl}-1,2,3,4-tetrahydroisoquinolin-1-yl)acetyl]piperidin-4-ol] | 7.00 to 9.00
15 | CCC[C@H]1N(C(=O)c2ncccc2C(F)(F)F)CCC[C@@]1(Oc1csc(C(F)(F)F)c1)C(=O)N1CCc2cc(N(C)C)ccc2C1 [Compound A83, N,N-dimethyl-2-{[(2R,3S)-2-propyl-1-{[3-(trifluoromethyl)pyridin-2-yl]carbonyl}-3-{[5-(trifluoromethyl)thiophen-3-yl]oxy}piperidin-3-yl]carbonyl}-1,2,3,4-tetrahydroisoquinolin-6-amine] | 4.70 to 7.00
16 | CCC[C@H]1N(C(=O)c2ncccc2C(F)(F)F)CCC[C@@]1(Oc1csc(C(F)(F)F)c1)C(=O)N1CCc2cc(Cl)ccc2C1CC(=O)N1CCNC(=O)C1 (stereo partly drawn) [Compound A84, 4-[(6-chloro-2-{[(2R,3S)-2-propyl-1-{[3-(trifluoromethyl)pyridin-2-yl]carbonyl}-3-{[5-(trifluoromethyl)thiophen-3-yl]oxy}piperidin-3-yl]carbonyl}-1,2,3,4-tetrahydroisoquinolin-1-yl)acetyl]piperazin-2-one] | 7.00 to 9.00
17 | CCC[C@H]1N(C(=O)c2ncccc2C(F)(F)F)CCC[C@@]1(Oc1csc(C(F)(F)F)c1)C(=O)N1CCc2cc(Cl)ccc2C1CC(=O)N1CCC(O)CC1 (stereo partly drawn) [Compound A85, 1-[(6-chloro-2-{[(2R,3S)-2-propyl-1-{[3-(trifluoromethyl)pyridin-2-yl]carbonyl}-3-{[5-(trifluoromethyl)thiophen-3-yl]oxy}piperidin-3-yl]carbonyl}-1,2,3,4-tetrahydroisoquinolin-1-yl)acetyl]piperidin-4-ol] | 7.00 to 9.00
18 | CCC[C@H]1N(C(=O)c2ncccc2C(F)(F)F)CCC[C@@]1(Oc1csc(C(F)(F)F)c1)C(=O)N1CCc2c(ccc(Cl)c2Cl)C1 [Compound A86, 5,6-dichloro-2-{[(2R,3S)-2-propyl-1-{[3-(trifluoromethyl)pyridin-2-yl]carbonyl}-3-{[5-(trifluoromethyl)thiophen-3-yl]oxy}piperidin-3-yl]carbonyl}-1,2,3,4-tetrahydroisoquinoline] | 4.70 to 7.00
19 | CCC[C@H]1N(C(=O)c2ncccc2C(F)(F)F)CCC[C@@]1(Oc1csc(C(F)(F)F)c1)C(=O)N1CCc2cc(Cl)c(Cl)cc2C1 [Compound A87, 6,7-dichloro-2-{[(2R,3S)-2-propyl-1-{[3-(trifluoromethyl)pyridin-2-yl]carbonyl}-3-{[5-(trifluoromethyl)thiophen-3-yl]oxy}piperidin-3-yl]carbonyl}-1,2,3,4-tetrahydroisoquinoline] | 4.70 to 7.00
20 | CCC[C@H]1N(C(=O)c2ncccc2C(F)(F)F)CCC[C@@]1(Oc1csc(C(F)(F)F)c1)C(=O)N1CCc2cc(SC)ccc2C1 [Compound A88, 6-(methylsulfanyl)-2-{[(2R,3S)-2-propyl-1-{[3-(trifluoromethyl)pyridin-2-yl]carbonyl}-3-{[5-(trifluoromethyl)thiophen-3-yl]oxy}piperidin-3-yl]carbonyl}-1,2,3,4-tetrahydroisoquinoline] | 4.70 to 7.00
